Test results published in ChEMBL document CHEMBL6096630, “Enhancing therapeutic efficacy in homologous recombination-proficient pancreatic cancer via the combination of PARP1-PROTAC and a BRD4 inhibitor” (Bioorg Med Chem, 2024).
Activity calls are given as the source filed them. The calls are words filed in the database; no cut-off is given here.

What was measured:
PANC-1 [1] = assay: Induction of apoptosis in human PANC-1 cells assessed as early apoptotic cells at 10 uM incubated for 48 hrs by Annexin V-FITC/PI staining based flow cytometry (reference value: 1.41 %); format: functional
PANC-1 [2] = assay: Induction of cell cycle arrest in human PANC-1 cells assessed as accumulation at G1 phase at 5 uM incubated for 24 hrs by PI staining based flow cytometry (reference value: 51.70 %); format: functional
PANC-1 [3] = assay: Induction of cell cycle arrest in human PANC-1 cells assessed as accumulation at S phase at 10 uM incubated for 24 hrs by PI staining based flow cytometry (reference value: 38.94 %); format: functional
BXPC-3 = assay: Synergistic antiproliferative activity against human BXPC-3 cells expressing wild-type BRCA assessed as inhibition of cell viability incubated for 5 days in presence of JQ1 by CCK8 assay; format: functional, cell-based; settings: time 5.0 day
PANC-1 [4] = assay: Induction of DNA damage in human PANC-1 cells assessed as decrease in BRCA1 level at 2 uM in presence of JQ1 by Western blot analysis; format: functional, cell-based
PANC-1 [5] = assay: Induction of cell cycle arrest in human PANC-1 cells assessed as accumulation at G1 phase at 2.5 uM incubated for 24 hrs by PI staining based flow cytometry (reference value: 51.70 %); format: functional
PANC-1 [6] = assay: Anti-migration activity in human PANC-1 cells at 2 uM in presence of JQ1 incubated for 24 hrs by wound healing assay; format: functional, cell-based
PANC-1 [7] = assay: Induction of apoptosis in human PANC-1 cells assessed as early apoptotic cells at 0.6 uM incubated for 48 hrs by Annexin V-FITC/PI staining based flow cytometry (reference value: 1.41 %); format: functional
PANC-1 [8] = assay: Induction of cell cycle arrest in human PANC-1 cells assessed as accumulation at S phase at 5 uM incubated for 24 hrs by PI staining based flow cytometry (reference value: 38.94 %); format: functional
PANC-1 [9] = assay: Induction of apoptosis in human PANC-1 cells assessed as viable cells at 1.2 uM incubated for 48 hrs by Annexin V-FITC/PI staining based flow cytometry (reference value: 91.64 %); format: functional; settings: read-out: Activity
[10] = Toxicity in BALB/c mouse xenografted with human PANC-1 cells assessed as pathological changes in spleen at 40 mg/kg, ip for 4 weeks administered for 5 days consecutively and 2 days without treatment on every week by H and E staining based analysis; format: organism-based; settings: in vivo, 672 h
PANC-1 [11] = assay: Induction of apoptosis in human PANC-1 cells assessed as necrotic cells at 0.6 uM incubated for 48 hrs by Annexin V-FITC/PI staining based flow cytometry (reference value: 3.09 %); format: functional
PANC-1 [12] = assay: Induction of DNA damage in human PANC-1 cells assessed as increase in gamma-H2AX level at 2 uM in presence of JQ1 by immunofluorescence based analysis; format: functional, cell-based
PANC-1 [13] = assay: Induction of DNA damage in human PANC-1 cells assessed as increase in gamma-H2AX level at 2 uM in presence of JQ1 by Western blot analysis; format: functional, cell-based
PANC-1 [14] = assay: Induction of cell cycle arrest in human PANC-1 cells assessed as accumulation at G2 phase at 1.2 uM incubated for 24 hrs by PI staining based flow cytometry (reference value: 9.36 %); format: functional
[15] = Toxicity in BALB/c mouse xenografted with human PANC-1 cells assessed as animal morbidity at 40 mg/kg, ip for 4 weeks administered for 5 days consecutively and 2 days without treatment on every week; format: organism-based; settings: in vivo, 672 h
PANC-1 [16] = assay: Induction of cell cycle arrest in human PANC-1 cells assessed as accumulation at G2 phase at 2 uM incubated for 24 hrs in presence of JQ1 by PI staining based flow cytometry (reference value: 9.36 %); format: functional
PANC-1 [17] = assay: Induction of cell cycle arrest in human PANC-1 cells assessed as accumulation at G0/G1 phase at 0.12 to 2 uM incubated for 24 hrs by PI staining based flow cytometry; format: functional; settings: dose 0.12-2 µM
PANC-1 [18] = assay: Induction of apoptosis in human PANC-1 cells assessed as late apoptotic cells at 2 uM incubated for 48 hrs in presence of JQ1 by Annexin V-FITC/PI staining based flow cytometry (reference value: 3.87 %); format: functional
PANC-1 [19] = assay: Induction of apoptosis in human PANC-1 cells assessed as late apoptotic cells at 1.2 uM incubated for 48 hrs by Annexin V-FITC/PI staining based flow cytometry (reference value: 3.87 %); format: functional
PANC-1 [20] = assay: Antitumor activity against human PANC-1 cells xenografted in BALB/c mouse assessed as inhibition of tumor weight at 40 mg/kg, ip for 4 weeks administered for 5 days consecutively and 2 days without treatment on every week in presence of JQ1; format: functional, organism-based
[21] = Toxicity in BALB/c mouse xenografted with human PANC-1 cells assessed as animal mortality at 40 mg/kg, ip for 4 weeks administered for 5 days consecutively and 2 days without treatment on every week; format: organism-based; settings: in vivo, 672 h
[22] = Toxicity in BALB/c mouse xenografted with human PANC-1 cells assessed as pathological changes in spleen at 40 mg/kg, ip for 4 weeks administered for 5 days consecutively and 2 days without treatment on every week in presence of JQ1 by H and E staining based analysis; format: organism-based; settings: in vivo, 672 h
PANC-1 [23] = assay: Induction of DNA damage in human PANC-1 cells assessed as increase in gamma-H2AX level at 1 uM in presence of OL by Western blot analysis; format: functional, cell-based
PANC-1 [24] = assay: Induction of cell cycle arrest in human PANC-1 cells assessed as accumulation at S phase at 0.25 uM incubated for 24 hrs by PI staining based flow cytometry (reference value: 38.94 %); format: functional
PANC-1 [25] = assay: Induction of cell cycle arrest in human PANC-1 cells assessed as accumulation at S phase at 0.5 uM incubated for 24 hrs by PI staining based flow cytometry (reference value: 38.94 %); format: functional
[26] = Toxicity in BALB/c mouse xenografted with human PANC-1 cells assessed as pathological changes in spleen at 20 mg/kg, ip for 4 weeks administered for 5 days consecutively and 2 days without treatment on every week by H and E staining based analysis; format: organism-based; settings: in vivo, 672 h
PANC-1 [27] = assay: Induction of apoptosis in human PANC-1 cells assessed as viable cells at 1 uM incubated for 48 hrs in presence of OL by Annexin V-FITC/PI staining based flow cytometry (reference value: 91.64 %); format: functional; settings: read-out: Activity
PANC-1 [28] = assay: Antitumor activity against human PANC-1 cells xenografted in BALB/c mouse assessed as inhibition of tumor weight at 20 mg/kg, ip for 4 weeks administered for 5 days consecutively and 2 days without treatment on every week in presence of OL; format: functional, organism-based
PANC-1 [29] = assay: Induction of apoptosis in human PANC-1 cells at 1 uM incubated for 48 hrs in presence of OL by Annexin V-FITC/PI staining based flow cytometry relative to control; format: functional
PANC-1 [30] = assay: Induction of cell cycle arrest in human PANC-1 cells assessed as accumulation at G1 phase at 0.12 uM incubated for 24 hrs by PI staining based flow cytometry (reference value: 51.70 %); format: functional
PANC-1 [31] = assay: Induction of apoptosis in human PANC-1 cells assessed as early apoptotic cells at 0.5 uM incubated for 48 hrs by Annexin V-FITC/PI staining based flow cytometry (reference value: 1.41 %); format: functional

SMILES	Activity (PANC-1 [1])	Activity (PANC-1 [2])	Activity (PANC-1 [3])	Activity (PANC-1 [4])	Activity (PANC-1 [5])	Activity (PANC-1 [6])	Activity (PANC-1 [7])	Activity (PANC-1 [8])	viability at 1.2 µM (PANC-1 [9])	Activity [10]	Activity (PANC-1 [11])	Activity (PANC-1 [13])	Activity (PANC-1 [14])	Activity [15]	Activity (PANC-1 [16])	Activity (PANC-1 [17])	Activity (PANC-1 [18])	Activity (PANC-1 [19])	inhibition (PANC-1 [20])	Activity [21]	other results
O=C1CCC(N2C(=O)c3cccc(NC(=O)CNCCCCCCCCCCC(=O)N4CCN(C(=O)c5cc(Cc6n[nH]c(=O)c7ccccc67)ccc5F)CC4)c3C2=O)C(=O)N1 (stereo not drawn)	4.38%	43.66%	40.91%	Active	43.76%	Active	3.9%	42.71%	89.8%	Non-toxic	3.52%	Active	11.34%	Non-toxic	22.93%	43.66%	21.9%	3.71%	Active	Non-toxic	inhibition (BXPC-3): Active; Activity (PANC-1 [12]): Active; Activity [22]: Non-toxic
Cc1sc2c(c1C)C(c1ccc(Cl)cc1)=N[C@@H](CC(=O)OC(C)(C)C)c1nnc(C)n1-2	–	–	–	–	–	–	–	–	–	–	–	–	–	–	–	Active	–	–	–	–	Activity (PANC-1 [23]): Active; Activity (PANC-1 [24]): 38.89%; Activity (PANC-1 [25]): 35.66%; Activity [26]: Non-toxic; viability at 1 µM (PANC-1 [27]): 68.3%; inhibition (PANC-1 [28]): Active; Activity (PANC-1 [29]): 26.9%; Activity (PANC-1 [30]): 46.24%; Activity (PANC-1 [31]): 3.52%
O=C(c1cc(Cc2n[nH]c(=O)c3ccccc23)ccc1F)N1CCN(C(=O)C2CC2)CC1 [OLAPARIB]	3.98%	40.8%	44.95%	Active	44.32%	Active	2.25%	43.96%	89.1%	Non-toxic	3.23%	Active	12.41%	Non-toxic	15.74%	–	21.52%	3.98%	Active	Non-toxic	Activity [22]: Non-toxic
